Measured values: PMC9615537 (Journal of Pharmaceutical Analysis, 2022)

Test: Metabolic identification of PEP06 in vitro, all matrices together
Format: in vitro ADME
Settings: semi-quantitative, Table S3

With RGDRGDMHSHRDFQPVLH [M6] the “Relative abundance of metabolite (peak area vs parent)” value was “most abundant metabolite”.
